Source: patent publication US12662469B2 (SIRONAX LTD, priority 2018, dated 2026)

Each compound was assayed on Cell Necrosis (assay: Cell necrosis assay / cell viability assay (necrosis inhibitor activity)). Conditions: not given.
Type: cell-based
`O=C1COc2cc(F)c(OC3CN(C(=O)N4N=CC[C@@H]4c4ccccc4)C3)cc2N1` [(R)-7-fluoro-6-((1-(5-phenyl-4,5-dihydro-1H-pyrazole-1-carbonyl)azetidin-3-yl)oxy)-2H-benzo[b][1,4]oxazin-3(4H)-one] was tested, and the “activity based on the cell activity assay” value was “weak activity”.

Same assay, conditions: necrosis inhibitor activity; EC data for 14-191 extrapolated; read-out: EC50
`C[C@H]1CN(c2ncc(F)cn2)CCN1C(=O)N1N=CCC1c1ccccc1` (stereo in doubt) [Compound 111A, (S)-(4-(5-fluoropyrimidin-2-yl)-2-methylpiperazin-1-yl)(5-phenyl-4,5-dihydro-1H-pyrazol-1-yl)methanone] showed an EC50 of 1 to 1000 nM. `C[C@H]1CN(c2ncc(F)cn2)CCN1C(=O)N1N=CCC1c1ccccc1` (stereo in doubt) [Compound 111B, (S)-(4-(5-fluoropyrimidin-2-yl)-2-methylpiperazin-1-yl)(5-phenyl-4,5-dihydro-1H-pyrazol-1-yl)methanone] gave an EC50 of 1000 to 10000 nM. Compound `C[C@H]1CN(c2ncccn2)CCN1C(=O)N1N=CCC1c1ccccc1` (stereo in doubt) [Compound 112A, (S)-(2-methyl-4-(pyrimidin-2-yl)piperazin-1-yl)(5-phenyl-4,5-dihydro-1H-pyrazol-1-yl)methanone] has an EC50 of 1 to 1000 nM. `C[C@H]1CN(c2ncccn2)CCN1C(=O)N1N=CCC1c1ccccc1` (stereo in doubt) [Compound 112B, (S)-(2-methyl-4-(pyrimidin-2-yl)piperazin-1-yl)(5-phenyl-4,5-dihydro-1H-pyrazol-1-yl)methanone] was tested, and the EC50 was 1000 to 10000 nM. Compound `O=C(N1CCc2ccccc2C1)N1N=CCC1c1ccccc1` (stereo not drawn) [Compound 15, (3,4-dihydroisoquinolin-2(1H)-yl)(5-phenyl-4,5-dihydro-1H-pyrazol-1-yl)methanone] has an EC50 of 1000 to 10000 nM. In the case of `O=C(N1CC(Cc2ccccc2)C1)N1N=CCC1c1ccccc1` (stereo not drawn) [Compound 16, (3-benzylazetidin-1-yl)(5-phenyl-4,5-dihydro-1H-pyrazol-1-yl)methanone], the EC50 is reported as 1 to 1000 nM. In the case of `O=C(N1CCC(Cc2ccccc2)C1)N1N=CCC1c1ccccc1` (stereo not drawn) [Compound 17, (3-benzylpyrrolidin-1-yl)(5-phenyl-4,5-dihydro-1H-pyrazol-1-yl)methanone], the EC50 is reported as 1 to 1000 nM. `O=C(N1CCC(Cc2ccccc2)CC1)N1N=CCC1c1ccccc1` (stereo not drawn) [Compound 18, (4-benzylpiperidin-1-yl)(5-phenyl-4,5-dihydro-1H-pyrazol-1-yl)methanone] gave an EC50 of 1 to 1000 nM. Compound `O=C(N1CC(Nc2ccccc2)C1)N1N=CCC1c1ccccc1` (stereo not drawn) [Compound 19, (5-phenyl-4,5-dihydro-1H-pyrazol-1-yl)(3-(phenylamino)azetidin-1-yl)methanone] has an EC50 of 1000 to 10000 nM. `CN(c1ccccc1)C1CN(C(=O)N2N=CCC2c2ccccc2)C1` (stereo not drawn) [Compound 20, (3-(methyl(phenyl)amino)azetidin-1-yl)(5-phenyl-4,5-dihydro-1H-pyrazol-1-yl)methanone] was tested, and the EC50 was 1000 to 10000 nM. For `O=C(NC1CCC(c2ccccc2)C1)N1N=CCC1c1ccccc1` (stereo not drawn) [Compound 21, 5-phenyl-N-(3-phenylcyclopentyl)-4,5-dihydro-1H-pyrazole-1-carboxamide], the EC50 was 1 to 1000 nM. `O=C(NC1CCN(c2ncccn2)C1)N1N=CCC1c1ccccc1` (stereo not drawn) [Compound 22] gave an EC50 of 1000 to 10000 nM. Compound `O=C(NC1CCN(c2ccc(F)cn2)C1)N1N=CCC1c1ccccc1` (stereo not drawn) [Compound 23, N-(1-(5-fluoropyridin-2-yl)pyrrolidin-3-yl)-5-phenyl-4,5-dihydro-1H-pyrazole-1-carboxamide] has an EC50 of 1 to 1000 nM. For `O=C(NC1CCN(c2ccccc2)C1)N1N=CCC1c1ccccc1` (stereo not drawn) [Compound 24, 5-phenyl-N-(1-phenylpyrrolidin-3-yl)-4,5-dihydro-1H-pyrazole-1-carboxamide], the EC50 was 1 to 1000 nM. `O=C(N[C@H]1CC[C@H](Oc2ccccc2)C1)N1N=CCC1c1ccccc1` (stereo partly drawn) [Compound 25, N-((1S,3S)-3-phenoxycyclopentyl)-5-phenyl-4,5-dihydro-1H-pyrazole-1-carboxamide] gave an EC50 of 1000 to 10000 nM. `O=C(N1CC[C@H](Oc2ccccc2)C1)N1N=CCC1c1ccccc1` (stereo partly drawn) [Compound 27A, ((S)-3-phenoxypyrrolidin-1-yl)(S-phenyl-4,5-dihydro-1H-pyrazol-1-yl)methanone] was tested, and the EC50 was 1000 to 10000 nM. Work on `O=C(N1CC[C@H](Oc2ccccc2)C1)N1N=CCC1c1ccccc1` (stereo partly drawn) [Compound 27B, ((S)-3-phenoxypyrrolidin-1-yl)(S-phenyl-4,5-dihydro-1H-pyrazol-1-yl)methanone] yielded an EC50 of 1 to 1000 nM. With `C[C@@H]1CN(c2ncc(F)cn2)C[C@H](C)N1C(=O)N1N=CCC1c1ccccc1` (stereo partly drawn) [Compound 28, ((2R,6S)-4-(5-fluoropyrimidin-2-yl)-2,6-dimethylpiperazin-1-yl)(5-phenyl-4,5-dihydro-1H-pyrazol-1-yl)methanone] the EC50 was 1 to 1000 nM. With `C[C@@H]1CN(c2ncc(F)cn2)C[C@H](C)N1C(=O)N1N=CCC1c1cccc(F)c1` (stereo partly drawn) [Compound 29, (5-(3-fluorophenyl)-4,5-dihydro-1H-pyrazol-1-yl)((2R,6S)-4-(5-fluoropyrimidin-2-yl)-2,6-dimethylpiperazin-1-yl)methanone] the EC50 was 1 to 1000 nM. For `C[C@@H]1CN(c2ncc(F)cn2)C[C@H](C)N1C(=O)N1N=CCC1c1cc(F)cc(F)c1` (stereo partly drawn) [Compound 30, (5-(3,5-difluorophenyl)-4,5-dihydro-1H-pyrazol-1-yl)((2R,6S)-4-(5-fluoropyrimidin-2-yl)-2,6-dimethylpiperazin-1-yl)methanone], the EC50 was 1 to 1000 nM. With `O=C(N1CC[C@@H](Oc2ccccc2F)C1)N1N=CCC1c1ccccc1` (stereo partly drawn) [Compound 31, ((R)-3-(2-fluorophenoxy)pyrrolidin-1-yl)(5-phenyl-4,5-dihydro-1H-pyrazol-1-yl)methanone] the EC50 was 1 to 1000 nM. With `O=C(N1CC[C@@H](Oc2cccc(F)c2)C1)N1N=CCC1c1ccccc1` (stereo partly drawn) [Compound 32, ((R)-3-(3-fluorophenoxy)pyrrolidin-1-yl)(5-phenyl-4,5-dihydro-1H-pyrazol-1-yl)methanone] the EC50 was 1 to 1000 nM. `O=C(N1CC[C@@H](Oc2ccc(F)cc2)C1)N1N=CCC1c1ccccc1` (stereo partly drawn) [Compound 33, ((R)-3-(4-fluorophenoxy)pyrrolidin-1-yl)(5-phenyl-4,5-dihydro-1H-pyrazol-1-yl)methanone] showed an EC50 of 1 to 1000 nM. Compound `O=C(N1CC[C@@H](Oc2ncc(F)cn2)C1)N1N=CCC1c1ccccc1` (stereo partly drawn) [Compound 34, ((R)-3-((5-fluoropyrimidin-2-yl)oxy)pyrrolidin-1-yl)(5-phenyl-4,5-dihydro-1H-pyrazol-1-yl)methanone] has an EC50 of 1000 to 10000 nM. `O=C(N1CC[C@@H](Oc2cccc(Cl)c2)C1)N1N=CCC1c1ccccc1` (stereo partly drawn) [Compound 35, ((R)-3-(3-chlorophenoxy)pyrrolidin-1-yl)(5-phenyl-4,5-dihydro-1H-pyrazol-1-yl)methanone] showed an EC50 of 1000 to 10000 nM. `O=C(N1CC(=Cc2ccccc2)C1)N1N=CCC1c1ccccc1` (stereo not drawn) [Compound 36, (3-benzylideneazetidin-1-yl)(5-phenyl-4,5-dihydro-1H-pyrazol-1-yl)methanone] showed an EC50 of 1 to 1000 nM. With `Cc1ccccc1CC1CN(C(=O)N2N=CCC2c2ccccc2)C1` (stereo not drawn) [Compound 37, (3-(2-methylbenzyl)azetidin-1-yl)(5-phenyl-4,5-dihydro-1H-pyrazol-1-yl) methanone] the EC50 was 1 to 1000 nM. With `Cc1ccccc1C=C1CN(C(=O)N2N=CCC2c2ccccc2)C1` (stereo not drawn) [Compound 38, (3-(2-methylbenzylidene)azetidin-1-yl)(5-phenyl-4,5-dihydro-1H-pyrazol-1-yl)methanone] the EC50 was 1 to 1000 nM. `COc1cccc(CC2CN(C(=O)N3N=CCC3c3ccccc3)C2)c1` (stereo not drawn) [Compound 39, (3-(3-methoxybenzyl)azetidin-1-yl)(5-phenyl-4,5-dihydro-1H-pyrazol-1-yl) methanone] was tested, and the EC50 was 1 to 1000 nM. In the case of `O=C(N1CC(Cc2ccccc2F)C1)N1N=CCC1c1ccccc1` (stereo not drawn) [Compound 40, (3-(2-fluorobenzyl)azetidin-1-yl)(5-phenyl-4,5-dihydro-1H-pyrazol-1-yl)methanone], the EC50 is reported as 1 to 1000 nM. For `O=C(N1CC(Cc2ccc(F)cc2)C1)N1N=CCC1c1ccccc1` (stereo not drawn) [Compound 42, (3-(4-fluorobenzyl)azetidin-1-yl)(5-phenyl-4,5-dihydro-1H-pyrazol-1-yl)methanone], the EC50 was 1 to 1000 nM.

Same assay, conditions: necrosis inhibitor activity; compounds outside 14-191; read-out: EC50
In the case of `O=C(NC1CCC1)N1N=CCC1c1ccccc1` (stereo not drawn) [Compound 2, N-cyclobutyl-5-phenyl-4,5-dihydro-1H-pyrazole-1-carboxamide], the EC50 is reported as 1 to 1000 nM. `O=C(N1CC2(CCC2)C1)N1N=CCC1c1ccccc1` (stereo not drawn) [Compound 3, (5-phenyl-4,5-dihydro-1H-pyrazol-1-yl)(2-azaspiro[3.3]heptan-2-yl)methanone] gave an EC50 of 1 to 1000 nM. In the case of `CC1CN(C(=O)N2N=CCC2c2ccccc2)C1` (stereo not drawn) [Compound 4, (3-methylazetidin-1-yl)(5-phenyl-4,5-dihydro-1H-pyrazol-1-yl)methanone], the EC50 is reported as 1 to 1000 nM. Compound `O=C(NC1CCCC1)N1N=CCC1c1ccccc1` (stereo not drawn) [Compound 5, N-cyclopentyl-5-phenyl-4,5-dihydro-1H-pyrazole-1-carboxamide] has an EC50 of 1 to 1000 nM. With `O=C(N1CCCC1)N1N=CCC1c1ccccc1` (stereo not drawn) [Compound 6, (5-phenyl-4,5-dihydro-1H-pyrazol-1-yl)(pyrrolidin-1-yl)methanone] the EC50 was 1 to 1000 nM. `O=C(N1CCCCC1)N1N=CCC1c1ccccc1` (stereo not drawn) [Compound 7, (5-phenyl-4,5-dihydro-1H-pyrazol-1-yl)(piperidin-1-yl)methanone] showed an EC50 of 1 to 1000 nM. With `CC1CCCCN1C(=O)N1N=CCC1c1ccccc1` (stereo not drawn) [Compound 8, (2-methylpiperidin-1-yl)(5-phenyl-4,5-dihydro-1H-pyrazol-1-yl)methanone] the EC50 was 1000 to 10000 nM. `CC1CCCN(C(=O)N2N=CCC2c2ccccc2)C1` (stereo not drawn) [Compound 9, (3-methylpiperidin-1-yl)(5-phenyl-4,5-dihydro-1H-pyrazol-1-yl)methanone] was tested, and the EC50 was 1 to 1000 nM. With `O=C(NC1CCCCC1)N1N=CCC1c1ccccc1` (stereo not drawn) [Compound 10, N-cyclohexyl-5-phenyl-4,5-dihydro-1H-pyrazole-1-carboxamide] the EC50 was 1000 to 10000 nM. Compound `CC1CCCC(NC(=O)N2N=CCC2c2ccccc2)C1` (stereo not drawn) [Compound 11, N-(3-methylcyclohexyl)-5-phenyl-4,5-dihydro-1H-pyrazole-1-carboxamide] has an EC50 of 1 to 1000 nM. For `CN(C(=O)N1N=CCC1c1ccccc1)C1CCCCC1` (stereo not drawn) [Compound 12, N-cyclohexyl-N-methyl-5-phenyl-4,5-dihydro-1H-pyrazole-1-carboxamide], the EC50 was 1000 to 10000 nM. In the case of `O=C(N1Cc2ccccc2C1)N1N=CCC1c1ccccc1` (stereo not drawn) [Compound 13, Isoindolin-2-yl(5-phenyl-4,5-dihydro-1H-pyrazol-1-yl)methanone], the EC50 is reported as 1 to 1000 nM. `O=C(N1CC[C@@H](Oc2cccc(Cl)c2)C1)N1N=CCC1c1ccccc1` (stereo partly drawn) [Compound 35, ((R)-3-(3-chlorophenoxy)pyrrolidin-1-yl)(5-phenyl-4,5-dihydro-1H-pyrazol-1-yl)methanone] gave an EC50 of 1 to 1000 nM.
